Assay [1] addresses T1, S1P1 (Homo sapiens, UniProt P21453).
T1 construct: expressed in transfected cells; host or cells: CHO cells (membranes)
As to the kind of experiment: 35S-GTPγS binding, S1P1 membranes. Type of assay: biochemical. The following applies: membranes from CHO cells expressing S1P1; 60 min 30° C. A digest of the protocol:
(§1)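 CHO-cell membranes expressing S1P1 or S1P3 (1-10 μg) incubated with compounds in 20 mM HEPES pH 7.4, 10 mM MgCl2, 140 mM NaCl, saponin, 0.2% BSA, 1.7 μM GDP and [35S]-GTPγS (20 μl of 1.5 nM added), 60 min at 30° C. Bound radioactivity expressed as % of S1P activation.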
On the technique in general: Binding of GTPγS marks nucleotide exchange on a G protein.

In the next assay the target is T2, S1P3 (Homo sapiens, UniProt Q99500).
T2 construct: expressed in transfected cells; host or cells: CHO cells (membranes)
T2 sequence (Q99500 whole entry, species assumed): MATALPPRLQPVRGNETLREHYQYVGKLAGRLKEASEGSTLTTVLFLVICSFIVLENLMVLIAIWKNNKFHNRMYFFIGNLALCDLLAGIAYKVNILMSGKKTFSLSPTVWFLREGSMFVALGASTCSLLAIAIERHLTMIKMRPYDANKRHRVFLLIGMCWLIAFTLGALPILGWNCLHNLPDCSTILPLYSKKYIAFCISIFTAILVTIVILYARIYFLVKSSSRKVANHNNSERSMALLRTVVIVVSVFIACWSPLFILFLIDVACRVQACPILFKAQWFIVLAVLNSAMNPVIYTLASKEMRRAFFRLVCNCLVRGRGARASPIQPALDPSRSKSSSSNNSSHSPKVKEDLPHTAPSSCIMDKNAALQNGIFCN
Description: 35S-GTPγS binding, S1P3 membranes. Type of assay: biochemical. As to conditions: membranes from CHO cells expressing S1P3; 60 min 30° C. A digest of the protocol: as §1

For assay [2], the target named is T1, S1P1. Description: Receptor binding assay, [33P]sphingosine 1-phosphate, membranes, WGA SPA beads. As to conditions: membranes from CHO cells expressing S1P1; 25 pM [33P]S1P; 60 min RT. A digest of the protocol: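 CHO-cell membranes expressing S1P1 incubated with 25 pM [33P]S1P in 50 mM HEPES pH 7.5, 5 mM MgCl2, 100 mM NaCl, 0.4% fatty acid-free BSA with WGA SPA beads for 60 min at RT. Bound radioactivity counted by scintillation proximity; specific binding defined using 1000-fold excess unlabeled S1P.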

Drawing on patent publication US8202865B2, “Oxadiazole derivatives” (Merck Serono SA, priority 2007, dated 2012), this text covers EC50 and Ki for 18 molecules.

Structures can show the parent of a compound that is named as a salt.

T1 sequence (P21453 whole entry, species assumed): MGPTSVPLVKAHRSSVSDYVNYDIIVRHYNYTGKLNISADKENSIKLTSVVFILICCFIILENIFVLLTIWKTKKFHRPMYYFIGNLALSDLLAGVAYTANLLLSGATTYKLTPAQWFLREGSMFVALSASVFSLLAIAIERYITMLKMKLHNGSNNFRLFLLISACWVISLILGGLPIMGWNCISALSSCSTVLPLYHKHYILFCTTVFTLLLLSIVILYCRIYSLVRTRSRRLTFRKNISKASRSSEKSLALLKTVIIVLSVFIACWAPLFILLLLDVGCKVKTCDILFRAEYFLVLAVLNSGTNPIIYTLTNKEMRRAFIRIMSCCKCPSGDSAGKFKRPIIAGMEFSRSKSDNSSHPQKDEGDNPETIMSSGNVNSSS

The EC50 is the midpoint of the concentration-response curve. By Ki is commonly meant the equilibrium dissociation constant of an inhibitor or competing ligand from its target. As to `CCc1ccccc1-c1ccc(-c2nc(-c3cccc(CN(C)CC(=O)O)c3)no2)cc1COC` [Example 143, N-(3-{5-[2′-ethyl-2-(methoxymethyl)biphenyl-4-yl]-1,2,4-oxadiazol-3-yl}benzyl)-N-methylglycine, hydrochloride salt], the EC50 is 0.6 nM on S1P1 [1] and 281 nM on S1P3. The molecule further returned a Ki at S1P1 [2] of 0.8 nM.
For `COCc1cc(-c2nc(-c3ccc(F)c(CN(C)CC(=O)O)c3)no2)ccc1-c1ccccc1C` [Example 146, N-(2-fluoro-5-{5-[2-(methoxymethyl)-2′-methylbiphenyl-4-yl]-1,2,4-oxadiazol-3-yl}benzyl)-N-methylglycine, Hydrochloride salt], the EC50 on S1P1 [1] came to 2.5 nM; at S1P3, 422 nM. The molecule further displayed a Ki on S1P1 [2] of 0.8 nM.
Regarding `CCc1ccccc1-c1ccc(-c2nc(-c3ccc(F)c(CN(C)CC(=O)O)c3)no2)cc1COC` [Example 147, N-(5-{5-[2′-ethyl-2-(methoxymethyl)biphenyl-4-yl]-1,2,4-oxadiazol-3-yl}-2-fluorobenzyl)-N-methylglycine, Hydrochloride salt], the EC50 at S1P1 [1] amounted to 1.5 nM; at S1P3, 754 nM. The same molecule returned a Ki on S1P1 [2] of 2 nM.
For `COCc1cc(-c2nc(-c3cccc(CN(C)CC(=O)O)c3)no2)ccc1OC(C)C` [Example 148, N-(3-{5-[4-isopropoxy-3-(methoxymethyl)phenyl]-1,2,4-oxadiazol-3-yl}benzyl)-N-methylglycine, Hydrochloride salt] the same measures were 4 nM, 2350 nM and 0.7 nM.
Consider `COCc1cc(-c2nc(-c3cccc(CN(C)CCC(=O)O)c3)no2)ccc1-c1ccccc1C` [Example 150, N-(3-{5-[2-(methoxymethyl)-2′-methylbiphenyl-4-yl]-1,2,4-oxadiazol-3-yl}benzyl)-N-methyl-beta-alanine], for which the EC50 at S1P1 [1] is 0.5 nM; on S1P3 it was 95 nM. At S1P1 [2], affinity was put at a Ki of 0.3 nM.
For `COCc1cc(-c2nc(-c3cccc(CNC4(C(=O)O)CC4)c3)no2)ccc1-c1ccccc1C` [Example 151, 1-[(3-{5-[2-(methoxymethyl)-2′-methylbiphenyl-4-yl]-1,2,4-oxadiazol-3-yl}benzyl)amino]cyclopropanecarboxylic acid], in that order: 4.8 nM, 175 nM and 6.5 nM.
For `COCc1cc(-c2nc(-c3ccc(OCC(=O)O)c(F)c3)no2)ccc1-c1ccccc1C` [Example 166, (2-fluoro-{5-[2-(methoxymethyl)-2′-methylbiphenyl-4-yl]-1,2,4-oxadiazol-3-yl}phenoxy)acetic acid] the same measures were 14 nM, 219 nM and 11 nM.
In the case of `COCc1cc(-c2nc(-c3cccc(S(N)(=O)=O)c3)no2)ccc1-c1ccccc1C` [Example 170, 3-{5-[2-(methoxymethyl)-2′-methylbiphenyl-4-yl]-1,2,4-oxadiazol-3-yl}benzenesulfonamide], the values for the EC50 at S1P1 [1] and on S1P3 were 0.7 nM and 214 nM, respectively. This molecule also came in with a Ki on S1P1 [2] of 0.8 nM.
As for `Cc1ccccc1-c1ccc(-c2nc(-c3ccc(C(N)=O)c(F)c3)no2)cc1C` [Example 171, 4-[5-(2,2′-dimethylbiphenyl-4-yl)-1,2,4-oxadiazol-3-yl]-2-fluorobenzamide], the values for the EC50 on S1P1 [1] and on S1P3 were 19 nM and above 20000 nM, respectively. On S1P1 [2], the Ki was 39 nM.
Regarding `COCc1cc(-c2nc(-c3ccc(C(=O)NCCNC(C)=O)c(F)c3)no2)ccc1-c1ccccc1C` [Example 174, N-[2-(acetylamino)ethyl]-2-fluoro-4-{5-[2-(methoxymethyl)-2′-methylbiphenyl-4-yl]-1,2,4-oxadiazol-3-yl}benzamide], the results for the EC50 on S1P1 [1] and at S1P3 were 17 nM and 1420 nM, respectively. For the same molecule, the affinity on S1P1 [2] corresponds to a Ki of 3.4 nM.
As to `COCc1cc(-c2nc(-c3ccc(C(=O)NCCc4nnn[nH]4)c(F)c3)no2)ccc1-c1ccccc1C` [Example 177, 2-fluoro-4-{5-[2-(methoxymethyl)-2′-methylbiphenyl-4-yl]-1,2,4-oxadiazol-3-yl}-N-[2-(1H-tetrazol-5-yl)ethyl]benzamide], the figures for the EC50 at S1P1 [1] and on S1P3 were 1.3 nM and 1150 nM, respectively. The Ki at S1P1 [2] turned out to be 2 nM.
As to `COCc1cc(-c2nc(-c3ccc(C(N)=O)cc3)no2)ccc1-c1ccccc1C` [Example 178, 4-{5-[2-(methoxymethyl)-2′-methylbiphenyl-4-yl]-1,2,4-oxadiazol-3-yl}benzamide], the EC50 was 4.8 nM at S1P1 [1] and 141 nM on S1P3. This molecule showed a Ki on S1P1 [2] of 1 nM.
For `COCc1cc(-c2nc(-c3ccc(C(N)=O)c(F)c3)no2)ccc1-c1ccccc1C` [Example 179, 2-fluoro-4-{5-[2-(methoxymethyl)-2′-methylbiphenyl-4-yl]-1,2,4-oxadiazol-3-yl}benzamide] the same measures were 8 nM, 274 nM and 3 nM.
For `COCc1cc(-c2nc(-c3cccc(C(=O)NCCC#N)c3)no2)ccc1-c1ccccc1C` [Example 183, N-(2-cyanoethyl)-3-{5-[2-(methoxymethyl)-2′-methylbiphenyl-4-yl]-1,2,4-oxadiazol-3-yl}benzamide] the same measures were 2.4 nM, 5600 nM and 2 nM.
`COCc1cc(-c2nc(-c3cccc(C(=O)NCCNC(C)=O)c3)no2)ccc1-c1ccccc1C` [Example 184, N-[2-(acetylamino)ethyl]-3-{5-[2-(methoxymethyl)-2′-methylbiphenyl-4-yl]-1,2,4-oxadiazol-3-yl}benzamide]: the results for the EC50 on S1P1 [1] and on S1P3 were 3.3 nM and 4490 nM, respectively. Moreover, the Ki on S1P1 [2] was 1 nM.
With `COCc1cc(-c2nc(-c3cccc(CN(C)CCO)c3)no2)ccc1-c1ccccc1C` [Example 186, 2-[(3-{5-[2-(methoxymethyl)-2′-methylbiphenyl-4-yl]-1,2,4-oxadiazol-3-yl}benzyl)(methyl)amino]ethanol, Hydrochloride salt], the figures for the EC50 at S1P1 [1] and at S1P3 were 1.1 nM and 1620 nM, respectively. For the same molecule, the Ki on S1P1 [2] turned out to be 0.8 nM.
For `COCc1cc(-c2nc(-c3cccc(CO)c3)no2)ccc1-c1ccccc1C` [Example 189, (3-{5-[2-(methoxymethyl)-2′-methylbiphenyl-4-yl]-1,2,4-oxadiazol-3-yl}phenyl)methanol], the EC50 came out at 2.1 nM on S1P1 [1] and 574 nM on S1P3. Moreover, on S1P1 [2], the affinity, expressed as Ki, was 1 nM.
Turning to `COCc1cc(-c2nc(-c3cccc(S(C)(=O)=O)c3)no2)ccc1-c1ccccc1C` [Example 194, 5-[2-(methoxymethyl)-2′-methylbiphenyl-4-yl]-3-[3-(methylsulfonyl)phenyl]-1,2,4-oxadiazole], the EC50 at S1P1 [1] came out at 1 nM; on S1P3, 1720 nM. The same molecule returned a Ki at S1P1 [2] of 1.6 nM.
